Assay results taken from US8852917B2, “Thuricin CD, an antimicrobial for specifically targeting Clostridium difficile” (University College Cork, priority 2007, dated 2014).
Converted amounts (≈) assume the structure as drawn. “Also recorded” adds a separate entry of the source. Like-named read-outs stand apart in the source and are kept apart here.

Key:
[1] = test system: C. difficile ribotypes 001, 106 and 027; experiment: Determination of minimum inhibitory concentrations; format: cell-based
[2] = test system: C. difficile; experiment: Lysis of C. difficile by thuricin CD; format: cell-based
Protocol: The lytic effect of thuricin CD on C. difficile was carried out as described by Rea et at (2007).

[3] = Heat sensitivity; format: physicochemical
Protocol: (§1) Activity over a range of pH was determined in CFS by adjusting pH from 2 to 9 using either 0.5M HCl or 1M NaOH. The effect of acid or base on the target organism was determined using uninoculated broth medium adjusted through the pH range. Activity was determined using WDA assay using C. difficile ATCC 43593 as the target strain. Heat sensitivity was determined by heating the CFS for 15 min at a range of temperatures from 37° C. to 100° C.; the control was incubated at 37° C. Activity was determined using WDA with C. difficile ATCC 43593 as the target organism.

[4] = test system: B. lactis Bb12; format: cell-based
[5] = Sensitivity to enzymatic degradation; format: in vitro ADME; conditions: FIG. 1; Proteinase K (6.5 mg/ml) applied to the edge of the well
Protocol: The cell free supernatant was tested for sensitivity to the following enzymes at a concentration of 25 mg/ml: pepsin, trypsin, peptidase, α-chymotrypsin type V111, α-chymotrypsin type 11 and proteinase K. All enzymes were purchased from Sigma. Cell free supernatants were incubated with the enzymes for 1 h at 37° C. Activity post enzyme treatment was determined using the well diffusion method using C. difficile ATCC 43593 as the target organism. Sensitivity of the antimicrobial to Proteinase K was also determined by applying 5 μl of Proteinase K (6.5 mg/ml) to the edge of the well containing the sample.

[6] = test system: Lb. casei 338; format: cell-based
[7] = test system: Gram negative organisms; format: cell-based; conditions: WDA
Protocol: B. thuringiensis DPC 6431 was grown aerobically from stock for ˜6 h in BHI broth and sub-cultured into fresh BHI at 0.1% for 18 h in BHI. Following growth, the culture was centrifuged twice at 8200 g for 10 min. Activity was determined using the well diffusion assay (WDA) as described by Ryan et al., (1996). Activity against a range of target organisms was determined by WDA. Cultures were grown over-night in various broth media and temperatures as outlined in Table 1. Twenty ml of the appropriate agar medium was inoculated with 100 μl of target organism and, once solidified, 50 μl of the cell free supernatant (CFS) of B. thuringiensis DPC 6431 was added to a well made in the agar. Plates were incubated under conditions appropriate for the various target organisms as outlined in Table 1. Zones of inhibition (mm) were measured and relative sensitivity determined by measuring the diameter of the zone. Zones of size ≦9 mm were designated +; of 10-15 mm were designated ++; of 16-21 mm were designated +++; of ≧22 mm were designated ++++;

[8] = test system: L. monocytogenes NCTC 5348; format: cell-based
[9] = test system: C. difficile R027 NAP1; experiment: Kill curves; format: cell-based
Protocol: The effect of thuricin against C. difficile R027 NAP1, L. monocytogenes NCTC 5348, Lb. casei 338 and B. lactis Bb12 was determined in Reinforced Clostridium Medium (RCM Merck), Brain Heart Infusion broth (Merck), MRS (de Mann-Rogosa-Sharpe) medium (Difco) and MRS containing 0.05% cystein respectively. Three independent cultures were prepared for each strain and grown overnight at 37° C. Three replicate one ml volumes of sterile double strength broth medium was prepared for each strain and inoculated with the test organisms to give initial cell numbers of 10^5-10^6/ml. Thuricin was added to give the required concentration and the volume made up to 2 ml with sterile distilled water. The bacteriocin was omitted from the control and volume substituted with sterile water. Samples were removed at intervals, serially diluted and plated on RCA, BHI agar, MRS agar or MRS agar containing 0.05% cystein depending on the strain. Plates were counted after 24 h (L. monocytogenes), or 48 h (C. difficile, Lb. casei 338 and B. lactis Bb12) incubation at 37° C.

[10] = test system: Bifidobacteria; experiment: Model faecal fermentation; format: cell-based, Bifidobacterium sp.; conditions: up to 16 hr incubation
Protocol: (§2) Faecal growth medium was prepared as described by Fooks and Gibson (2003) with minor modifications as follows. The ingredients were made up to 800 ml, the pH adjusted to 6.8. One hundred and sixty ml was added to each fermentation vessel and autoclaved at 121° C. for 15 min. Prior to inoculation the faecal medium was sparged with O2-free nitrogen for ˜1 h. A 20% faecal slurry was made from a fresh faecal sample in 50 mM phosphate buffer containing 0.05% cystein which has been previously boiled and cooled just prior to use and mixed using a stomacher for no longer than 1 min. Two fermentor vessels were inoculated with 35 ml of the slurry preparation and 2 ml of the overnight culture of C. difficile. To the test vessel 1 ml of 100 mg/ml thuricin was added at 0, 8 and 16 h incubation and both vessels sampled at 0, 4, 8, 12, 16, 20 and 24 h for both microbiological analyses of C. difficile and Bifidobacteria sp. Samples were also taken for analysis of thuricin activity using WDA and MALDI-TOF MS.
(§3) C. difficile was enumerated on CCEY agar (LabM) and Bifidobacterium sp. on modified MRS agar containing 0.05% cystein and 50 mg mupirocin/1 after 48 h and 72 h at 37° C. incubation respectively.

[11] = test system: bifidobacteria strains; format: cell-based
[12] = Activity over a range of pH; format: physicochemical
Protocol: as §1

[13] = Stability in ex vivo porcine gastric and ileal juice; format: in vitro ADME; conditions: 37° C., 1 mg/ml, WDA
Protocol: Effect of ex vivo porcine gastric and ileal juice on the stability of the thuricin CD C. difficile 64539 was grown overnight and inoculated at 1.25% into Reinforced Clostridium Agar (RCA). Purified Thuricin CD was prepared as described above. Seven ml of porcine ileal and gastric juice was centrifuged for 15 min at 12,000 rpm to remove debris. Seventy μl (1 mg/ml) of thuricin was added to 7000 μl of porcine gastric and ileum juice and incubated at 37° C. At intervals samples were taken and activity was measured using the WDA and checked for the presence of the Trn-α and Trn-β peptides using MALDI-TOF MS.

[14] = Stability in simulated gastric, ileal and colon juice; format: in vitro ADME; conditions: 37° C., 1 mg/ml, WDA
Protocol: Effect of simulated gastric, ileal and colon juice on stability of thuricin CD C. difficile 64539 was grown overnight and inoculated at 1.25% into Reinforced Clostridium Agar (RCA). Simulated gastric, ileal and colon juice were prepared as outlined by Breumer et al (1992). Purified thuricin CD was made up to 100 mg/ml in 70% IPA. Seventy μl (1 mg/ml final concentration) of thuricin was added to 7000 μl of porcine gastric and ileum juice and incubated at 37° C. At intervals samples were taken and activity was measured with the WDA using C. difficile seeded plates. The samples were also assayed for the presence of the Trn-α and Trn-β peptides using MALDI-TOF MS

[15] = test system: C. difficile DPC 6537 (PCR ribotype 001); experiment: Model faecal fermentation; format: cell-based; conditions: 500 μg thuricin added at 0, 8, and 16 hr; spiked with 10^6 cfu C. difficile ribotype 001/ml; after 16 hr incubation
Protocol: C. difficile DPC 6537 (PCR Ribot e 001) was taken from −80° C. stock and streaked on Fastidious Anaerobic Agar and incubated anaerobically at 37° C. On the night before the experiment ˜1 colony was inoculated into 10 ml of RCM which has been previously boiled and cooled and incubated anaerobically at 37° C.
as §2, with “To the test vessel 1 ml of 100 mg/ml thuricin was added at 0, 8 and 16 h incubation and both vessels sampled at 0, 4, 8, 12, 16, 20 and 24 h for both microbiological analyses of C. difficile and Bifidobacteria sp.” left out
as §3

[16] = test system: Lactobacillus and Bifidobacterium populations; conditions: simple faecal fermentations; concentrations required to kill C. difficile; cited from earlier work
[17] = C. difficile ribotype 001, 16 h at 37° C. anaerobically, read-out: MIC
[18] = C. difficile ribotype 106, 16 h at 37° C. anaerobically, read-out: MIC

With `Cc1ncc([N+](=O)[O-])n1CCO` [Metronidazole, metronidazole] the MIC ([1]; Clostridioides difficile, 16 h, C. difficile ribotype 001, 16 h at 37° C. anaerobically, read-out: MIC) was 3.12 µM (≈ 0.535 µg/mL), the MIC ([1]; Clostridioides difficile, 16 h, C. difficile ribotype 027, 16 h at 37° C. anaerobically, read-out: MIC) was 3.12 µM (≈ 0.535 µg/mL) and the MIC ([1]; Clostridioides difficile, 16 h, C. difficile ribotype 106, 16 h at 37° C. anaerobically, read-out: MIC) was 1.56 µM (≈ 0.267 µg/mL).
In the case of `CN[C@H](CC(C)C)C(=O)N[C@H]1C(=O)N[C@@H](CC(N)=O)C(=O)N[C@H]2C(=O)N[C@H]3C(=O)N[C@H](C(=O)N[C@H](C(=O)O)c4cc(O)cc(O)c4-c4cc3ccc4O)[C@H](O)c3ccc(c(Cl)c3)Oc3cc2cc(c3O[C@@H]2O[C@H](CO)[C@@H](O)[C@H](O)[C@H]2O[C@H]2C[C@](C)(N)[C@H](O)[C@H](C)O2)Oc2ccc(cc2Cl)[C@H]1O` [Vancomycin, vancomycin], the MIC [1, 17] is reported as 0.39 µM (≈ 0.565 µg/mL), the MIC [1, 18] is reported as 0.39 µM (≈ 0.565 µg/mL) and the MIC ([1]; Clostridioides difficile, 16 h) is reported as 0.39 µM (≈ 0.565 µg/mL).
With Thuricin CD the “Effect on OD600 nm of logarithmically growing C. difficile” value [2] was “gradual reduction of OD600 nm”, the “Acetate kinase in the growth medium (lysis)” value ([2]; logarithmically growing C. difficile) was “release of the intracellular enzyme acetate kinase” and the “Activity after heating at 90° C.” value [3] was “reduction of activity”. For the same molecule, the “Activity after heating at 100° C.” value [3] was “loss of activity”, the “Temperature up to which heat stable / activity retained” value [3] was “up to 95 °C” and the “Temperature up to which heat-stable” value [3] was “about 85 ° Centigrade”. The “Effect on viability of B. lactis BB12” value [4] was “no effect; also recorded: did not affect”, the “Activity on treatment with Proteinase K” value [5] was “lost” and the “Effect on viability of Lb. casei 338” value [6] was “no effect; also recorded: did not affect”. For the same molecule, the “Activity against Gram negative organisms tested” value [7] was “no activity”, the “Reduction of cell numbers of L. monocytogenes” value [8] was 1.5 log cycles and the MIC [1, 17] was 0.097 µM. The MIC ([1]; C. difficile ribotype 027, 16 h at 37° C. anaerobically, read-out: MIC) was 0.012 µM, the MIC [1, 18] was 0.125 µM and the “Time within which approximately 5×10^6 CFU of C. difficile per ml are killed” value ([9]; 5 μM) was at most 60 minutes. The “Time to reduce viable cells from ˜10^6/ml to zero” value ([9]; 200 AU thuricin/ml, C. difficile PCR ribotype 027) was at most 2 h, the “Time within which approximately 5×10^6 CFU of C. difficile per ml are killed” value ([9]; 200 AU/ml) was at most 180 minutes and the “Time within which ˜5×10^6 cfu of C. difficile per ml were killed” value ([9]; 200 AU/ml) was at most 180 min. For the same molecule, the “Effect on numbers of Bifidobacteria relative to control” value [10] was “did not affect”, the “Sensitivity of bifidobacteria strains tested” value [11] was “No bifidobacteria strains tested were sensitive” and the “pH range in which active” value [12] was 2-10. The “Activity after incubation in ex vivo porcine gastric juice” value ([13]; 2 hr) was “no reduction in activity”, the “Activity after incubation in ex vivo porcine ileal juice” value ([13]; 5 hr) was “no reduction in activity” and the “Activity after incubation in simulated gastric juice” value ([14]; 2 hours) was “no reduction of activity”. The “Activity after incubation in simulated ileal juice” value ([14]; 4 hours) was “no reduction of activity”, the “Activity after incubation in simulated colon juice” value ([14]; 9 hours) was “no reduction of activity” and the “Reduction of C. difficile compared with the control” value [15] was “over 1000 fold”.
For lacticin 3147, the “Effect on Lactobacillus and Bifidobacterium populations” value [16] is listed as 3 log cycles.
